Reference: article PMC9221290, “Alkaloids of Dicranostigma franchetianum (Papaveraceae) and Berberine Derivatives as a New Class of Antimycobacterial Agents” (Biomolecules, 2022)
Like-named read-outs stand apart in the source and are kept apart here.

Legend:
[1] = system: Mycobacterium avium DSM 44156 (ATCC 25291); test: Antimycobacterial microdilution broth assay (resazurin), M. avium; type: cell-based; settings: Mycobacterium avium, 96 h, read-out: MIC M. avium, microdilution broth, resazurin, 96 h
[2] = system: Mycobacterium kansasii DSM 44162 (ATCC 12478); test: Antimycobacterial microdilution broth assay (resazurin), M. kansasii; type: cell-based; settings: Mycobacterium kansasii, 96 h, read-out: MIC M. kansasii, microdilution broth, resazurin, 96 h
in vitro = settings: human, % of cell viability compared to control; for viability at 1 µM: HepG2, 1 µM; for viability at 5 µM: HepG2, 5 µM; for viability at 10 µM: HepG2, 10 µM; for viability at 20 µM: HepG2, 20 µM; for viability at 40 µM: HepG2, 40 µM; for viability at 100 µM: HepG2, 100 µM; for viability at 25 µM: HepG2, 25 µM; for viability at 50 µM: HepG2, 50 µM; for viability at 75 µM: HepG2, 75 µM; for viability at 0.1 µM: HepG2, 0.1 µM; for viability at 30 µM: HepG2, 30 µM
HepG2 cells [3] = system: HepG2 cells
[4] = system: Mycolicibacterium smegmatis DSM 43465 (ATCC 607); test: Antimycobacterial microdilution broth assay (resazurin), M. smegmatis; type: cell-based; settings: Mycolicibacterium smegmatis, 48 h, read-out: MIC M. smegmatis, microdilution broth, resazurin, 48 h
[5] = system: Mtb H37Ra ITM-M006710 (ATCC 9431); test: Antimycobacterial microdilution broth assay (resazurin), Mtb H37Ra; type: cell-based, Mycobacterium tuberculosis; settings: Mycobacterium tuberculosis
HepG2 cells [6] = test: cells; settings: Homo sapiens, HepG2, 24 h
[7] = system: Mycolicibacterium aurum DSM 43999 (ATCC 23366); test: Antimycobacterial microdilution broth assay (resazurin), M. aurum; type: cell-based; settings: Mycolicibacterium aurum, 72 h, read-out: MIC M. aurum, microdilution broth, resazurin, 72 h
[8] = 120 h, microdilution broth, resazurin, 120 h, read-out: MIC Mtb H37Ra
[9] = calculated from MIC (µg/mL) and MW, read-out: MIC Mtb H37Ra
[10] = read-out: HepG2 IC50, 1. measurement, MTT, 24 h, single measurement 1
[11] = read-out: HepG2 IC50, 2. measurement, MTT, 24 h, single measurement 2
[12] = read-out: HepG2 IC50, 3. measurement, MTT, 24 h, single measurement 3
[13] = read-out: HepG2 IC50, MTT, 24 h incubation

SMILES	MIC [1] [µg/mL]	MIC [2] [µg/mL]	viability at 1 µM (in vitro; 1. measurement) [%]	viability at 5 µM (in vitro; 1. measurement) [%]	viability at 10 µM (in vitro; 1. measurement) [%]	viability at 1 µM (in vitro; 2. measurement) [%]	viability at 5 µM (in vitro; 2. measurement) [%]	viability at 10 µM (in vitro; 2. measurement) [%]	viability at 50 µM (in vitro; 2. measurement) [%]	viability at 1 µM (in vitro; 3. measurement) [%]	viability at 5 µM (in vitro; 3. measurement) [%]	viability at 10 µM (in vitro; 3. measurement) [%]	viability at 50 µM (in vitro; 3. measurement) [%]	SI (selectivity index) (HepG2 cells [3])	MIC [4] [µg/mL]	IC50 (HepG2 cells [6]; [10]) [µM]	IC50 (HepG2 cells [6]; [11]) [µM]	IC50 (HepG2 cells [6]; [12]) [µM]	IC50 (HepG2 cells [6]; [13]) [µM]	MIC [7] [µg/mL]	further results
COc1ccc2cc3[n+](cc2c1OCc1cccc(C)c1)CCc1cc2c(cc1-3)OCO2 [16c, 9-O-(3-methylbenzyl)berberine chloride]	6.25	6.25	87.2	88.3	74	88.3	78.7	68.3	47.9	99.8	78.9	64.9	47.3	3.49	1.56	55.6	43.4	42.3	47.1 ± 7.38	3.12	viability at 20 µM (in vitro; 1. measurement): 58.4%; viability at 40 µM (in vitro; 1. measurement): 54.5%; viability at 60 µM (in vitro; 1. measurement, HepG2, 60 µM): 53.3%; viability at 80 µM (in vitro; 1. measurement, HepG2, 80 µM): 49.5%; viability at 100 µM (in vitro; 1. measurement): 35.1%; viability at 25 µM (in vitro; 2. measurement): 52.9%; viability at 75 µM (in vitro; 2. measurement): 45.7%; viability at 100 µM (in vitro; 2. measurement): 39%; viability at 0.1 µM (in vitro; 3. measurement): 102%; viability at 25 µM (in vitro; 3. measurement): 48.6%; viability at 75 µM (in vitro; 3. measurement): 46.1%; viability at 100 µM (in vitro; 3. measurement): 42.5%; MIC [5, 8]: 6.25 µg/mL; MIC [5, 9]: 13.5 µM
COc1ccc2cc3[n+](cc2c1OCc1ccc(C)cc1)CCc1cc2c(cc1-3)OCO2 [16d, 9-O-(4-methylbenzyl)berberine chloride]	1.98	3.91	96.1	70	55.6	92.6	64.6	48	41.4	76.5	68.2	52	45.2	2.54	1.56	19.3	16	12.3	15.9 ± 3.48	6.25	viability at 25 µM (in vitro; 1. measurement): 48%; viability at 50 µM (in vitro; 1. measurement): 43.7%; viability at 75 µM (in vitro; 1. measurement): 32.6%; viability at 100 µM (in vitro; 1. measurement): 7.68%; viability at 0.1 µM (in vitro; 2. measurement): 93.3%; viability at 25 µM (in vitro; 2. measurement): 45%; viability at 75 µM (in vitro; 2. measurement): 34%; viability at 100 µM (in vitro; 2. measurement): 15.7%; viability at 0.1 µM (in vitro; 3. measurement): 79.8%; viability at 25 µM (in vitro; 3. measurement): 47.6%; viability at 75 µM (in vitro; 3. measurement): 18.3%; viability at 100 µM (in vitro; 3. measurement): 11.4%; MIC ([5]; 120 h, read-out: MIC Mtb H37Ra, microdilution broth, resazurin, 120 h): 3.91 µg/mL; MIC ([5]; read-out: MIC Mtb H37Ra (µM), calculated from MIC (µg/mL) and MW): 8.46 µM
COc1ccc2cc3[n+](cc2c1OCc1cccc(Br)c1)CCc1cc2c(cc1-3)OCO2 [16f, 9-O-(3-brombenzyl)berberine chloride]	3.12	3.12	95.5	69.4	54.8	104	76.8	56.1	32.8	90.5	62.6	49.4	23.7	2.34	0.78	14.1	17	10.5	13.9 ± 3.25	1.56	viability at 25 µM (in vitro; 1. measurement): 48.3%; viability at 50 µM (in vitro; 1. measurement): 39.3%; viability at 75 µM (in vitro; 1. measurement): 28%; viability at 100 µM (in vitro; 1. measurement): 12.3%; viability at 25 µM (in vitro; 2. measurement): 52.7%; viability at 75 µM (in vitro; 2. measurement): 2.26%; viability at 100 µM (in vitro; 2. measurement): 0.77%; viability at 25 µM (in vitro; 3. measurement): 43.7%; viability at 75 µM (in vitro; 3. measurement): 2.27%; viability at 100 µM (in vitro; 3. measurement): 1.1%; MIC [5, 8]: 3.12 µg/mL; MIC [5, 9]: 5.93 µM
COc1ccc2cc3[n+](cc2c1OCc1ccc(Br)cc1)CCc1cc2c(cc1-3)OCO2 [16g, 9-O-(4-brombenzyl)berberine chloride]	1.98	0.98	101	70.1	53.9	96.5	76.3	59.4	47.8	85	72.1	56.6	45.5	2.89	0.98	19.2	26.9	18.2	21.4 ± 4.8	3.91	viability at 25 µM (in vitro; 1. measurement): 46.7%; viability at 50 µM (in vitro; 1. measurement): 42.5%; viability at 75 µM (in vitro; 1. measurement): 25.8%; viability at 100 µM (in vitro; 1. measurement): 17.9%; viability at 25 µM (in vitro; 2. measurement): 44.7%; viability at 75 µM (in vitro; 2. measurement): 40.7%; viability at 100 µM (in vitro; 2. measurement): 23.9%; viability at 25 µM (in vitro; 3. measurement): 45.8%; viability at 75 µM (in vitro; 3. measurement): 26%; viability at 100 µM (in vitro; 3. measurement): 14%; MIC [5, 8]: 3.91 µg/mL; MIC [5, 9]: 7.42 µM
COc1ccc2cc3[n+](cc2c1OCc1cccc(Cl)c1)CCc1cc2c(cc1-3)OCO2 [16h, 9-O-(3-chlorbenzyl)berberine chloride]	1.56	3.12	65.4	66.5	51.7	94.6	67.4	54.2	12.8	87.2	54.4	47.8	15.6	1.59	0.78	8.53	11.9	7.91	9.44 ± 2.13	1.56	viability at 25 µM (in vitro; 1. measurement): 44.2%; viability at 50 µM (in vitro; 1. measurement): 36.5%; viability at 75 µM (in vitro; 1. measurement): 23.8%; viability at 100 µM (in vitro; 1. measurement): 15.7%; viability at 25 µM (in vitro; 2. measurement): 44.6%; viability at 75 µM (in vitro; 2. measurement): 1.14%; viability at 100 µM (in vitro; 2. measurement): 0.68%; viability at 25 µM (in vitro; 3. measurement): 36%; viability at 75 µM (in vitro; 3. measurement): 2.92%; viability at 100 µM (in vitro; 3. measurement): 0.98%; MIC [5, 8]: 3.12 µg/mL; MIC [5, 9]: 5.93 µM
COc1ccc2cc3[n+](cc2c1OCc1ccc(Cl)cc1)CCc1cc2c(cc1-3)OCO2 [16i, 9-O-(4-chlorbenzyl)berberine chloride]	1.56	6.25	101	82.3	55.3	93.6	78	56	3.4	100	82.3	61.1	2.8	2.73	1.56	15.9	14.7	18	16.2 ± 1.67	3.12	viability at 0.1 µM (in vitro; 1. measurement): 96.1%; viability at 20 µM (in vitro; 1. measurement): 48.5%; viability at 30 µM (in vitro; 1. measurement): 42.3%; viability at 40 µM (in vitro; 1. measurement): 24.7%; viability at 50 µM (in vitro; 1. measurement): 4.45%; viability at 0.1 µM (in vitro; 2. measurement): 91.6%; viability at 20 µM (in vitro; 2. measurement): 48.4%; viability at 30 µM (in vitro; 2. measurement): 40%; viability at 40 µM (in vitro; 2. measurement): 21.4%; viability at 0.1 µM (in vitro; 3. measurement): 98.2%; viability at 20 µM (in vitro; 3. measurement): 54.6%; viability at 30 µM (in vitro; 3. measurement): 45%; viability at 40 µM (in vitro; 3. measurement): 25.8%; MIC [5, 8]: 3.12 µg/mL; MIC [5, 9]: 5.93 µM
